In patent US20230151003A1, “COMPOUNDS AND METHODS OF USE” (Exelixis, Inc., priority 2020, published 2023) one finds IC50 data, which are given here for six compounds.

Where only a bound is given, the exact number is not on record here.

One experiment concerns the target T1, Human AXL (Homo sapiens, UniProt P30530).
T1 construct: Human AXL (residues 464-885; CarnaBio, 1 ng/ well); purchased CarnaBio
T1 sequence (P30530 464-885 isoform P30530-2): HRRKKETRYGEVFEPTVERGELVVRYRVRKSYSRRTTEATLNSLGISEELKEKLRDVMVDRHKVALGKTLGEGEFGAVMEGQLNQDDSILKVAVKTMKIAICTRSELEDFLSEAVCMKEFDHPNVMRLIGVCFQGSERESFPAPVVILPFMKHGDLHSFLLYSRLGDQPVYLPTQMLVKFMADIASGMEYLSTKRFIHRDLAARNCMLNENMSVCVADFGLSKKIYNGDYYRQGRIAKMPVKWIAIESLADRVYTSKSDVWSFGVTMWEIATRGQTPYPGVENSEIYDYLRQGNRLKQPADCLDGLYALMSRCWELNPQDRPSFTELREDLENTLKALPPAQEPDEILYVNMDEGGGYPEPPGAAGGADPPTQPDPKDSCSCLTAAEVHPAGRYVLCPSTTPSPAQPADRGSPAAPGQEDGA
The experiment can be described thus: Human AXL kinase assay (HTRF KinEase). Type of experiment: biochemical. The conditions noted are these: Table 2 Biological Activities, ATP at Km (1.0 μM). The protocol:
(§1) Kinase activity and compound inhibition were investigated using the HTRF® KinEase assay (Cisbio Cat #62TKOPEB) per manufacturer's instructions. In short, compounds were delivered in 300 nL volumes at 10 different concentrations in DMSO (3% final) to empty 384-well assay plates (Corning cat #3824). A mixture of enzyme, 1 μM biotynlated peptide substrate, and buffer in 10 μL volume was added. The assay was started upon the addition of ATP (at Km). The 10 μL reaction was incubated at room temperature. The reaction was stopped upon the addition of detection buffer containing streptavidin-XL665 (5 μL) and TK antibody-Eu3+ (5 μL). After a 60 min incubation at room temperature, the fluorescence at 665 nm and 620 nm was read on an Envision microplate reader (Perkin Elmer). Kinase activity normalized to DMSO (100% activity) and reference compound at 1 μM and (0% activity) was calculated using the fluorescence ratio […]. IC50 values were calculated by nonlinear regression analysis using a 4-parameter logistic curve fit in ActivityBase XE (IDBS).
Human AXL (residues 464-885; CarnaBio, 1 ng/ well) was incubated with enzymatic buffer (Cisbio) supplemented with 5 mM MgCl2, 1 mM DTT, and Supplemental Enzymatic Buffer (SEB; Cisbio). The mixture was added to the pre-plated compounds. The reaction was initiated upon addition of ATP at Km (1.0 μM). The reaction was incubated at room temperature for 50 min and stopped upon the addition of SA-XL665 and TK-antibody both diluted in EDTA-containing kinase detection buffer (Cisbio). The kinase activity was calculated as stated above and the IC50 values were reported.
For orientation: Time-resolved FRET reads energy transfer from a long-lived donor to a nearby acceptor.

A further experiment addresses Met (Homo sapiens, UniProt P08581). Briefly: Human MET kinase assay (HTRF KinEase). The experiment is classed as biochemical. The arrangement: Human MET (residues 956-1390; CarnaBio, 0.1 ng/ well); purchased CarnaBio. The settings on record: Table 2 Biological Activities, ATP at Km (3.0 μM), read-out: c-Met IC50. On the procedure:
as §1
Human MET (residues 956-1390; CarnaBio, 0.1 ng/ well) was incubated with enzymatic buffer (Cisbio) supplemented with 5 mM MgCl2, 1 mM DTT and 1 mM MnCl2. The mixture was added to the pre-plated compounds. The reaction was initiated upon addition of ATP at Km (3.0 μM). The reaction was incubated at room temperature for 40 min and stopped upon the addition of SA-XL665 and TK-antibody both diluted in EDTA-containing kinase detection buffer (Cisbio). The kinase activity was calculated as stated above and the IC50 values were reported.

Sequence of Met (P08581 956-1390): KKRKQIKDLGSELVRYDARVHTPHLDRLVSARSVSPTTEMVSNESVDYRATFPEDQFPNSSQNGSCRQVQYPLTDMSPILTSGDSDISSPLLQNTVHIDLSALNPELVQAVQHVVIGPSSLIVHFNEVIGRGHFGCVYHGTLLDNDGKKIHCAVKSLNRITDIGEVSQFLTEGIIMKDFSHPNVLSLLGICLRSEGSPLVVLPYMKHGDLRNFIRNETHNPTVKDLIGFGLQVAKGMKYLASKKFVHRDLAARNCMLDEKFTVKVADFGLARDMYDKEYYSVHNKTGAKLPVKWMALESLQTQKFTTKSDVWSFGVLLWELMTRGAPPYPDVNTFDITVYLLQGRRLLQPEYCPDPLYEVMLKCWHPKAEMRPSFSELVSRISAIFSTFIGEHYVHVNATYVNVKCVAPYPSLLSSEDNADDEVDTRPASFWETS

As a reminder, the IC50 is the point on the concentration scale where inhibition reaches its midpoint. `COc1cnc2c(Oc3ccc(NC(=O)c4c(C)nc(C)c(-c5ccc(F)cn5)c4O)cc3F)ccnc2c1` [Compound 217, N-[3-Fluoro-4-[(7-methoxy-1,5-naphthyridin-4-yl)oxy]phenyl]-5-(5-fluoropyridin-2-yl)-4-hydroxy-2,6-dimethylpyridine-3-carboxamide]: the IC50 against Human AXL and on Met was no more than 100 nM throughout.
As to `COc1cc2nccc(Oc3ccc(NC(=O)c4c(C)nc(C)c(-c5ccc(F)cn5)c4O)cc3F)c2nc1OC` [Compound 218, N-[4-[(6,7-Dimethoxy-1,5-naphthyridin-4-yl)oxy]-3-fluorophenyl]-5-(5-fluoropyridin-2-yl)-4-hydroxy-2,6-dimethylpyridine-3-carboxamide], the IC50 at Human AXL and at Met was no more than 100 nM in each case.
Take `COc1cc2nccc(Oc3ccc(NC(=O)c4ccc(C)n(-c5ccncc5)c4=O)cc3F)c2nc1OC` [Compound 221, N-[4-[(6,7-Dimethoxy-1,5-naphthyridin-4-yl)oxy]-3-fluorophenyl]-6-methyl-2-oxo-1-pyridin-4-ylpyridine-3-carboxamid]: the IC50 against Human AXL and on Met was no more than 100 nM each time.
As for `COCc1nc(C)c(-c2ccc(F)cn2)c(O)c1C(=O)Nc1ccc(Oc2ccnc3cc(OC)c(OC)nc23)c(F)c1` [Compound 214, N-[4-[(6,7-Dimethoxy-1,5-naphthyridin-4-yl)oxy]-3-fluorophenyl]-5-(5-fluoropyridin-2-yl)-4-hydroxy-2-(methoxymethyl)-6-methylpyridine-3-carboxamid], the IC50 against Human AXL and on Met was no more than 100 nM each time.
Turning to `COc1cc2nccc(Oc3ccc(NC(=O)c4ccc(C)n(-c5ccncc5F)c4=O)cc3F)c2nc1OC` [Compound 220, N-[4-[(6,7-Dimethoxy-1,5-naphthyridin-4-yl)oxy]-3-fluorophenyl]-1-(3-fluoropyridin-4-yl)-6-methyl-2-oxopyridine-3-carboxamide], the IC50 at Human AXL and at Met was no more than 100 nM throughout.
As for `COc1cc2nccc(Oc3ccc(NC(=O)c4c(C)nc(C)c(-c5ccc(F)cn5)c4O)cc3)c2nc1OC` [Compound 216, N-[4-[(6,7-Dimethoxy-1,5-naphthyridin-4-yl)oxy]phenyl]-5-(5-fluoropyridin-2-yl)-4-hydroxy-2,6-dimethylpyridine-3-carboxamide], the IC50 against Human AXL and on Met was no more than 100 nM throughout.
